Each structure is given as a SMILES string. Read-outs that look alike come from different tables or passages of the source.

For test [1], the system named is MV-4-11. In words: Long term proliferation assay (Table 3A), MV-4-11. The format is cell-based. Conditions: Homo sapiens, MV4-11.
The test system of test [2] is MV4-11. In words: Long term proliferation, Cell Titer-Glo (Table 3B), MV4-11. The test is classed as cell-based. Conditions: Homo sapiens, MV4-11, Cell Titer-Glo.
Test [3] has as its system HL-60. Briefly: LTP assay, CellTiterGlo, T4-T14 (Example 103), HL-60. The test is classed as cell-based. Conditions: for inhibition of cell viability (in words): HL-60, LTP assay. As for the experimental part:
(§1) The day of the experiment (T0) all the cell line suspensions were counted by Cell Viability Analyser, Vi-CELL and properly diluted with fresh medium to obtain the cell density reported in the Test System paragraph.
(§2) Cells were tested after 4 passages after thawing.
(§3) 200 μL/well and 150 μL/well of cell suspension were added into the 0.4 μL/well and 0.3 μL/well compound plates, respectively. • Cell plate containing 200 μL/well suspension was incubated at 37° C. in a humidified incubator with 5% CO2. • From each well of the 150 μL/well cell assay plate, 100 μL were harvested and transferred into a 96-well Optiplate (Perkin Elmer, Cat. n. 6005290) and cell viability was measured as described in 4.3 paragraphs (T0).
(§4) After four days in culture (T4) 150 μL/well of fresh medium were added into a new 0.3 μL/well copy compound plate. • From each well of the 200 μL/well cell assay plate: • 100 μL were sampled for the cell viability measurement as described in 4.3 paragraphs (T4). • 50 μL were harvested and added to the 150 μL/well compound plate prepared as described in the first point to dilute 1:4 the cell suspension. • The cell assay plate diluted and containing 200 μL/well suspension were incubated at 37° C. in a humidified incubator with 5% Co2.
(§5) At T7-T11-T14 it was proceeded as described in T4, with the exception that no further cell dilution was carried out at T14.
(§6) Plates containing the samples to be tested were equilibrated at room temperature for approximately 30 min and then 30 μL/well of the Promega CellTiterGlo® reagent were added.
(§7) Contents will be mixed for 5 min on an orbital shaker to induce cell lysis and then incubated at room temperature for an additional 10 min to stabilize the luminescent signal.
(§8) Luminescence was read by using VictorV (Perkin Elmer) multilabel plate reader using the standard protocol for luminescence in 96 well plate.
(§9) Data were expressed as % of inhibition compared to the 0.2% DMSO negative control, and was calculated as follows: […]
(§10) CRCs were analysed by GraphPad and IC50 values were calculated by non-linear regression using 4 parameter-logistic equation. IC50 (μM) values were reported in the final data table.
(§11) The curve fittings were performed leaving free all the parameters. Any constrain were reported in the results table.

Test [4] relates to MOLM-13 (MLL-AF9). Briefly: LTP assay, CellTiterGlo, T4-T14 (Example 103), MOLM-13. The test is classed as cell-based, human. Conditions: for inhibition of cell viability (in words): MOLM-13, LTP assay. As for the experimental part:
as §1, §2, §3, §4, §5, §6, §7, §8, §9, §10, §11

Test [5] relates to MV4-11 (MLL-AF4). In words: LTP assay, CellTiterGlo, T4-T14 (Example 103), MV4-11. The format is cell-based, human. Conditions: for inhibition of cell viability (in words): MV4-11, LTP assay. As for the experimental part:
as §1, §2, §3, §4, §5, §6, §7, §8, §9, §10, §11

For test [6], the system named is RS4-11 (MLL-AF4). In words: LTP assay, CellTiterGlo, T4-T14 (Example 103), RS4-11. The test is classed as cell-based. Conditions: for inhibition of cell viability (in words): RS4;11, LTP assay. As for the experimental part: as §1, §2, §3, §4, §5, §6, §7, §8, §9, §10, §11
Where [7] appears, read: MV-4-11, Day 4, read-out: MV-4-11 Day 4 IC50.
Where [8] appears, read: HL-60, T4 (Day 4), read-out: IC50 T4 (Day 4).
[9] abbreviates: Homo sapiens, HL-60, 96 h, HL-60, T4 (Day 4), read-out: IC50 T4 (Day 4).
The mark [10] stands for this setting: Homo sapiens, HL-60, HL-60, T7, read-out: IC50 T7.
Setting [11] is: Homo sapiens, HL-60, HL-60, T11, read-out: IC50 T11.
Setting [12] is: Homo sapiens, HL-60, HL-60, T14, read-out: IC50 T14.
Where [13] appears, read: Homo sapiens, MOLM-13, 96 h, MOLM-13 (MLL-AF9), T4 (Day 4), read-out: IC50 T4 (Day 4).
Setting [14] is: Homo sapiens, MOLM-13, MOLM-13 (MLL-AF9), T7, read-out: IC50 T7.
[15] abbreviates: Homo sapiens, MOLM-13, MOLM-13 (MLL-AF9), T11, read-out: IC50 T11.
The mark [16] stands for this setting: Homo sapiens, MOLM-13, MOLM-13 (MLL-AF9), T14, read-out: IC50 T14.
Where [17] appears, read: MOLM-13 (MLL-AF9), T4 (Day 4), read-out: IC50 T4 (Day 4).
Where [18] appears, read: Homo sapiens, MV4-11, 96 h, MV4-11 (MLL-AF4), T4 (Day 4), read-out: IC50 T4 (Day 4).
[19] abbreviates: Homo sapiens, MV4-11, MV4-11 (MLL-AF4), T7, read-out: IC50 T7.
[20] abbreviates: Homo sapiens, MV4-11, MV4-11 (MLL-AF4), T11, read-out: IC50 T11.
Setting [21] is: Homo sapiens, MV4-11, MV4-11 (MLL-AF4), T14, read-out: IC50 T14.
Setting [22] is: Homo sapiens, RS4-11, 96 h, RS4-11 (MLL-AF4), T4 (Day 4), read-out: IC50 T4 (Day 4).
[23] abbreviates: Homo sapiens, RS4-11, RS4-11 (MLL-AF4), T7, read-out: IC50 T7.
Setting [24] is: Homo sapiens, RS4-11, RS4-11 (MLL-AF4), T11, read-out: IC50 T11.

Regarding `O=C(Nc1ccc(-c2cc3c(N4CCOCC4)ncnc3[nH]2)cc1)Nc1cc(-c2cccnc2)n[nH]1` [Compound 9, 1-{4-[4-(morpholin-4-yl)-7H-pyrrolo[2,3-d]pyrimidin-6-yl]phenyl}-3-[3-(pyridin-3-yl)-1H-pyrazol-5-yl]urea], the half-maximal inhibitory concentration (IC50) in test [1] (setting [7]) was determined as 490 nM; in test [1] (MV-4-11, Day 11, read-out: MV-4-11 Day 11 IC50), 257 nM; in test [2] (96 h, Day 4, read-out: Day 4 IC50), 740 nM; in test [2] (168 h, Day 7, read-out: Day 7 IC50), 380 nM; in test [2] (264 h, Day 11, read-out: Day 11 IC50) it was 320 nM; in test [2] (336 h, Day 14, read-out: Day 14 IC50), 210 nM.

With `Cn1nc(-c2cccnc2)cc1CC(=O)Nc1ccc(-c2cc3c(N4CCOCC4)ncnc3[nH]2)cc1` [Compound 11, 2-[1-methyl-3-(pyridin-3-yl)-1H-pyrazol-5-yl]-N-{4-[4-(morpholin-4-yl)-7H-pyrrolo[2,3-d]pyrimidin-6-yl]phenyl}acetamide], the IC50 in test [1] (setting [7]) amounted to 280 nM; in test [3] (setting [8]) it was 692 nM; in test [3] (HL-60, T7, read-out: IC50 T7), 389 nM; in test [3] (setting [9]), 690 nM; in test [3] (setting [10]), 390 nM; in test [3] (setting [11]), 480 nM. For the same compound, the IC50 was determined as 470 nM in test [3] (setting [12]); 660 nM in test [4] (setting [13]); 513 nM in test [4] (setting [14]); 320 nM in test [4] (setting [15]); 420 nM in test [4] (setting [16]); 661 nM in test [4] (setting [17]). Moreover, the IC50 in test [5] (setting [18]) turned out to be 650 nM; in test [5] (setting [19]) it was 500 nM; in test [5] (setting [20]), 420 nM; in test [5] (setting [21]) it was 310 nM; in test [5] (MV4-11 (MLL-AF4), T4 (Day 4), read-out: IC50 T4 (Day 4)) it was 646 nM; in test [5] (MV4-11 (MLL-AF4), T7, read-out: IC50 T7) it was 501 nM. Moreover, the IC50 stood at 1230 nM in test [6] (setting [22]); 850 nM in test [6] (setting [23]); 110 nM in test [6] (setting [24]); 851 nM in test [6] (RS4-11 (MLL-AF4), T7, read-out: IC50 T7). Also, the “inhibition of cell viability (in words)” value in test [3], in test [4], in test [5] and in test [6] was “fully inhibited cell viability” each time.

`O=C(Cc1cc(-c2cccnc2)n[nH]1)Nc1ccc(-c2nc3c(N4CCOCC4)ncnc3[nH]2)cc1` [Compound 12, N-{4-[6-(morpholin-4-yl)-9H-purin-8-yl]phenyl}-2-[3-(pyridin-3-yl)-1H-pyrazol-5-yl]acetamide]: the IC50 in test [1] (setting [7]) was 430 nM; in test [3] (setting [8]), more than 10000 nM; in test [3] (HL-60, T7, read-out: IC50 T7) it was more than 10000 nM; in test [3] (setting [9]), more than 5000 nM; in test [3] (setting [10]) it was more than 5000 nM; in test [3] (setting [11]), more than 5000 nM. Also, the IC50 was more than 5000 nM in test [3] (setting [12]); more than 5000 nM in test [4] (setting [13]); 5750 nM in test [4] (setting [14]); 562 nM in test [4] (setting [15]); more than 5000 nM in test [4] (setting [16]); more than 10000 nM in test [4] (setting [17]). The IC50 in test [5] (setting [18]) stood at 1550 nM; in test [5] (setting [19]) it was 1260 nM; in test [5] (setting [20]), 850 nM; in test [5] (setting [21]), 870 nM; in test [6] (setting [22]) it was 580 nM; in test [6] (setting [23]), 420 nM. For the same compound, the concentration for half-maximal inhibition (IC50) in test [6] (setting [24]) was determined as 260 nM. Also, the “inhibition of cell viability (in words)” value in test [3] is on record as “No activity”; in test [4], “partial effect”; in test [5], “partial effect”; in test [6], “fully inhibited the cell viability”.

Values taken from patent US20240140953A1, “INHIBITORS OF MENIN-MLL INTERACTION” (BIOMEA FUSION, INC., priority 2018, published 2024).
